How the values were obtained:
MtbNei2 (Rv3297) [1] = biological target: T1, MtbNei2 (Rv3297) (Mycobacterium tuberculosis, UniProt P9WNC1); assay: In vitro inhibition of Uracil DNA glycosylase activity of MtbNei2; format: biochemical; conditions: for Inhibition of Uracil DNA glycosylase activity (in words): 50-800 µM inhibitor, 80 nM MtbNei2
T1 sequence (P9WNC1 1-255): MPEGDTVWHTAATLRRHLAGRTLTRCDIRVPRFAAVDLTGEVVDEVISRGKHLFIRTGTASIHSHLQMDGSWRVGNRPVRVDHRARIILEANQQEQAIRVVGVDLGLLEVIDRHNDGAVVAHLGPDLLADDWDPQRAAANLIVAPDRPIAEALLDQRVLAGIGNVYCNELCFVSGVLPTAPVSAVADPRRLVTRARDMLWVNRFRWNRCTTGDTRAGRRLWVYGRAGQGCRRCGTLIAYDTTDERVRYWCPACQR

MtbNei2 (Rv3297) [2] = biological target: T1, MtbNei2 (Rv3297); assay: In vitro inhibition of AP site cleavage; format: biochemical; conditions: for Inhibition of AP site cleavage activity (in words): 50-800 µM inhibitor, 80 nM MtbNei2

SMILES | IC50 (MtbNei2 (Rv3297) [1]) | Inhibition of Uracil DNA glycosylase activity (in words) (MtbNei2 (Rv3297) [1]) | IC50 (MtbNei2 (Rv3297) [2]) | Inhibition of AP site cleavage activity (in words) (MtbNei2 (Rv3297) [2])
COc1c2c(cc3c1[C@@H]1Oc4c(ccc(O)c4CC=C(C)C)[C@@H]1CO3)OC(C)(C)C=C2 [NSC250430, Gangetin] | 76.2 µM | good inhibition | 43.6 µM | good inhibition
C[C@H]1Oc2cc3c(-c4c(O)cc(O)c5c(O)c6c(cc45)O[C@H](C)[C@@H](C)C6=O)c(O)cc(O)c3c(O)c2C(=O)[C@@H]1C [NSC345647, Chaetochromin] | 92.7 µM | good inhibition | 84.7 µM | good inhibition

Reference: publication PMC5613217 (Biochemistry and Biophysics Reports, 2017)
